Results as given in patent US12678430B2, “Compositions and methods for the treatment of liver disorders” (Viking Therapeutics, Inc., priority 2020, dated 2026).

Experiments:
diet-induced NASH mice [1] = assay: Example 7: diet-induced (GAN diet) NASH mice, Compound 2, FXR agonists and combinations; type: in vivo; settings: for blood glucose level compared to vehicle: FIG. 6; for liver TG levels at the termination of the study: FIG. 8; for plasma triglyceride (TG) levels: as early as seven days, FIG. 7; for relative terminal body weight compared to vehicle: study day 21, FIG. 5; for plasma TG levels compared to vehicle: day 21, FIG. 11; for total liver triglycerides compared to tropifexor: day 21, FIG. 12; for plasma insulin level, significance compared to vehicle / plasma insulin levels compared to vehicle alone and to Compound 2: study day 21, FIG. 9; for plasma ALT level compared to vehicle alone / plasma ALT levels compared to tropifexor: study day 21, FIG. 10
Procedure: NASH was induced in mice by feeding mice a Gubra amylin NASH (GAN) diet as described in Boland et al. World J Gastroenterol. 2019, 25(33): 4904-4920. One week prior to administration of a first dose of compounds, the mice were weighed and randomized, and their food intake was measured. Mice were randomly assigned to dosing groups, with 12 mice per group. Assigned dosages included the following; Compound 2 (10 mg/kg); tropifexor (0.3 mg/kg); Compound 2 (10 mg/kg)+tropifexor (0.3 mg/kg); Compound II-1 (10 mg/kg); Compound 2 (10 mg/kg)+Compound II-1 (30 mg/kg); Compound II-2 (10 mg/kg); and Compound 2 (10 mg/kg)+Compound II-2 (30 mg/kg). One group was mock treated with vehicle only as a control. Dosage of Compound II-1 and Compound II-2 were titrated over 6 days, with a dosage of 3 mg/kg administered on days 0, 1 and 2 and a dosage of 10 mg/kg administered on days 3, 4, and 5. Absolute and relative body weight of the mice were recorded daily.
(§1) Fed blood glucose and fed plasma levels of alanine transaminase (ALT) aspartate transaminase (AST), triglycerides (TG), and total cholesterol (TC) were measured at days 7, 14, 21.
(§2) After 3 weeks, animals were sacrificed. Plasma enzymes (P-ALT (alanine aminotransferase) and P-AST (aspartate aminotransferase)), total plasma triglycerides, and total plasma cholesterol were measured, and terminal necropsy of each liver was carried out, determining relative liver weight as a percentage of body weight, assaying total liver biochemistry including total liver triglycerides, plasma insulin and total liver cholesterol, as well as histological evaluation of total liver hydroxyproline, and steatosis. Tissue samples were preserved for characterization using RNAseq.

FXR receptor = target: T1, FXR receptor (Homo sapiens, UniProt Q96RI1); assay: In vitro FXR activity, PathHunter enzyme fragment complementation assay in CHO cells; type: cell-based; settings: for EC50: CHO PathHunter cells, ten-point dose curve, chemiluminescence; for Emax: CHO, read-out: Max Response (%)
T1 construct: beta-galactosidase enzyme fragment (EFC/PathHunter); expressed in transfected cells; host or cells: Chinese Hamster Ovary (CHO) cells, stably transfected, clonally derived
T1 sequence (Q96RI1 1-486): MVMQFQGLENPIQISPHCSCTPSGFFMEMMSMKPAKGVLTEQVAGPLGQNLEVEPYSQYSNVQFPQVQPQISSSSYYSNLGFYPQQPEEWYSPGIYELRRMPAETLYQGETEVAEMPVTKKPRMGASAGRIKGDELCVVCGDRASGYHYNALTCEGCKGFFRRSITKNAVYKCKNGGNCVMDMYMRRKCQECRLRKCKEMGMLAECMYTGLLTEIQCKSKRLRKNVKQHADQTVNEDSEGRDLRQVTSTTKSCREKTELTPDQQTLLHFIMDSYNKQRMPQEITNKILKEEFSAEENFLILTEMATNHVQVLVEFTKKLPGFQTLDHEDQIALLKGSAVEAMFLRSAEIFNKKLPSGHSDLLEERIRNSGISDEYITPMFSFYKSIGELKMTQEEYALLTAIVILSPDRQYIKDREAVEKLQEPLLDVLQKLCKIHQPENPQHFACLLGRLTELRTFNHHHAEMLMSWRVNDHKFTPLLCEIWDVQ
Procedure: Cells were seeded in cell plating reagent in a total volume of 20 μL into 384-well microplates and incubated at 37° C., 5% CO2 humidified incubator for 24 or 48 hours prior to testing. FXR agonists were dissolved in DMSO (dimethyl sulfoxide). Ligands were subsequently diluted in the cell plating reagent to make up desired concentration stock solution. Ten-point dose curve serial dilutions were prepared in cell plating reagent. 5 μL of 5× sample was added to cells and incubated at 37° C. or room temperature for 3-16 hours. Final assay vehicle concentration was 1%. Chemiluminescent signals were generated through addition of 12.5 μL or 15 μL of detection reagent cocktail ([…]), followed by incubation at room temperature for 1 hour. Microplates were read for signal generation using a PerkinElmer Envision instrument to detect chemiluminescence. The percentage activity was calculated using the following formula: % Activity=100%×(mean RLU of test sample−mean RLU of vehicle control)/(mean MAX control ligand−mean RLU of vehicle control).

diet-induced NASH mice [2] = assay: Example 6: diet-induced (GAN diet) NASH mice, FXR agonists alone; type: in vivo; settings: 10 mg/kg; for blood glucose level compared to vehicle: FIG. 2; for plasma triglyceride (TG) levels compared to vehicle: as early as seven days, FIG. 3; for total liver triglycerides: over the course of the study, FIG. 4; for relative terminal body weight compared to vehicle: study day 21, FIG. 1; for liver TG lowering compared to tropifexor: II-1 p<0.05, II-2 p<0.01
Procedure: NASH was induced in mice by feeding mice a Gubra amylin NASH (GAN) diet as described in Boland et al. World J Gastroenterol. 2019, 25(33): 4904-4920. One week prior to administration of a first dose of compounds, the mice were weighed and randomized, and their food intake was measured. Mice were randomly assigned to dosing groups, with 12 mice per group. Assigned dosages were: Compound II-1 (10 mg/kg); Compound II-2 (10 mg/kg) One group was mock treated with vehicle only as a control. Dosage of Compound II-1 and Compound II-2 were titrated over 3 days, with a dosage of 3 mg/kg administered on days 0, 1 and 2. Dosage of tropifexor was titrated over 2 days, with a dosage of 0.1 mg/kg administered on days 0 and 1. Absolute and relative body weight of the mice were recorded daily.
as §1
as §2, with “8” for “3”

[3] = % Activity relative to MAX control ligand

Row | SMILES | blood glucose level compared to vehicle (diet-induced NASH mice [1]) | liver TG levels at the termination of the study (diet-induced NASH mice [1]) | plasma triglyceride (TG) levels (diet-induced NASH mice [1]) | relative terminal body weight compared to vehicle (diet-induced NASH mice [1]) | EC50 (FXR receptor) | Emax (FXR receptor; [3]) | blood glucose level compared to vehicle (diet-induced NASH mice [2]) | plasma triglyceride (TG) levels compared to vehicle (diet-induced NASH mice [2]) | total liver triglycerides (diet-induced NASH mice [2]) | relative terminal body weight compared to vehicle (diet-induced NASH mice [2]) | liver TG lowering compared to tropifexor (diet-induced NASH mice [2]) | plasma TG levels compared to vehicle (diet-induced NASH mice [1]) | total liver triglycerides compared to tropifexor (diet-induced NASH mice [1]) | plasma insulin level, significance compared to vehicle (diet-induced NASH mice [1]) | plasma insulin levels compared to vehicle alone and to Compound 2 (diet-induced NASH mice [1]) | plasma ALT level compared to vehicle alone (diet-induced NASH mice [1]) | plasma ALT levels compared to tropifexor (diet-induced NASH mice [1]) | Max Response (%) (FXR receptor; [3]) | plasma TG lowering compared to tropifexor (diet-induced NASH mice [2]; p<0.05)
1 | Cc1cc(OCP2(=O)OCC[C@@H](c3cccc(Cl)c3)O2)cc(C)c1Cc1ccc(O)c(C(C)C)c1 (stereo partly drawn) [Compound 2] | lower blood glucose level | lowered liver TG levels | significantly reduced | lower relative terminal body weight | – | – | – | – | – | – | – | – | – | – | – | – | – | – | –
2 | O=P(O)(O)c1cc(F)c2nc(N3[C@@H]4CC[C@H]3CC(OCc3c(-c5ccccc5OC(F)(F)F)noc3C3CC3)C4)sc2c1 (stereo partly drawn) [Compound II-1, (2-((1R,5S)-3-((5-cyclopropyl-3-(2-(trifluoromethoxy)phenyl)isoxazol-4-yl)methoxy)-8-azabicyclo[3.2.1]octan-8-yl)-4-fluorobenzo[d]thiazol-6-yl)phosphonic acid] | lower blood glucose level | lowered liver TG levels | significantly reduced | lower relative terminal body weight | 2860 nM | 52% | lower blood glucose level | significantly reduced | similarly decreased | lower relative terminal body weight | greater efficacy in lowering liver TG levels | significant reduction of plasma TG levels | reduced total liver triglycerides than tropifexor | statistically significant reduction of plasma insulin level | lower insulin levels | lower plasma ALT level | lower plasma ALT levels | – | –
3 | CP(=O)(O)c1cc(F)c2nc(N3[C@@H]4CC[C@H]3CC(OCc3c(-c5ccccc5OC(F)(F)F)noc3C3CC3)C4)sc2c1 (stereo partly drawn) [Compound II-2] | lower blood glucose level | lowered liver TG levels | significantly reduced | lower relative terminal body weight | 3080 nM | – | lower blood glucose level | significantly reduced | similarly decreased | lower relative terminal body weight | greater efficacy in lowering liver TG levels | significant reduction of plasma TG levels | reduced total liver triglycerides than tropifexor | statistically significant reduction of plasma insulin level | lower insulin levels | lower plasma ALT level | lower plasma ALT levels | 90% | greater efficacy in lowering plasma TG levels
4 | Oc1cc(-c2cc(F)c3nc(N4[C@@H]5CC[C@H]4CC(OCc4c(-c6ccccc6OC(F)(F)F)noc4C4CC4)C5)sc3c2)on1 (stereo partly drawn) [Compound II-3, 5-(2-((1R,5S)-3-((5-cyclopropyl-3-(2-(trifluoromethoxy)phenyl)isoxazol-4-yl)methoxy)-8-azabicyclo[3.2.1]octan-8-yl)-4-fluorobenzo[d]thiazol-6-yl)isoxazol-3-ol] | – | – | – | – | 24.6 nM | 151% | – | – | – | – | – | significant reduction of plasma TG levels | reduced total liver triglycerides than tropifexor | statistically significant reduction of plasma insulin level | lower insulin levels | lower plasma ALT level | lower plasma ALT levels | – | –
5 | Oc1cc(-c2cc(F)c3nc(N4[C@@H]5CC[C@H]4CC(OCc4c(-c6ccccc6OC(F)(F)F)noc4C4CC4)C5)sc3c2)no1 (stereo partly drawn) [Compound II-4, 3-(2-((1R,5S)-3-((5-cyclopropyl-3-(2-(trifluoromethoxy)phenyl)isoxazol-4-yl)methoxy)-8-azabicyclo[3.2.1]octan-8-yl)-4-fluorobenzo[d]thiazol-6-yl)isoxazol-5-ol] | – | – | – | – | 81.1 nM | 159% | – | – | – | – | – | significant reduction of plasma TG levels | reduced total liver triglycerides than tropifexor | – | lower insulin levels | lower plasma ALT level | lower plasma ALT levels | – | –
